In US20250163119A1, “COMPOUNDS FOR THE TREATMENT OF DIABETES OR OBESITY” (Eli Lilly and Company, priority 2023, published 2025):
Several values for one entry are separate records, joined by “and”; a condition that tells them apart may be missing. Equal entries are not always repeated. Where two headings read alike, the source gives them in different places. *1 amine or outer side, *2 acyl side, *3 side chain or, on linkers, in order; H or OH if unused. Where a SMILES comes first, the peptide text is derived from it. Bridges are numbered along the chain shown (N, C = ends). Roman numbers before positions name the chains, in order. Side-chain parts run from the residue outwards. [ ]: non-standard residue; d: D form. The star is where a group is joined. C20 diacid = O=C(O)CCCCCCCCCCCCCCCCCCC(=O)*; γGlu = O=C(O)[C@H](CCC(=O)[*:2])N[*:1]; εLys = N[C@@H](CCCCN[*:1])C(=O)[*:2]; αMeL = CC(C)C[C@](C)(N)C(=O)O; AEEA = NCCOCCOCC(=O)O; Aib = CC(C)(N)C(=O)O

What was measured:
human CRHR2 = molecular target: T1, human CRHR2 (Homo sapiens, UniProt Q13324); assay: Human CRHR2 cAMP assay (HTRF) in HEK293 cells stably expressing human CRHR2; assay type: cell-based; conditions: HEK293 cells overexpressing human CRHR2; relative EC50, maximum 10 nM human UCN2; mean ± SE; read-out: hCRHR2 cAMP EC50 (pM, ± SE)
T1 construct: expressed in transfected cells
T1 sequence (Q13324 1-438 isoform Q13324-2): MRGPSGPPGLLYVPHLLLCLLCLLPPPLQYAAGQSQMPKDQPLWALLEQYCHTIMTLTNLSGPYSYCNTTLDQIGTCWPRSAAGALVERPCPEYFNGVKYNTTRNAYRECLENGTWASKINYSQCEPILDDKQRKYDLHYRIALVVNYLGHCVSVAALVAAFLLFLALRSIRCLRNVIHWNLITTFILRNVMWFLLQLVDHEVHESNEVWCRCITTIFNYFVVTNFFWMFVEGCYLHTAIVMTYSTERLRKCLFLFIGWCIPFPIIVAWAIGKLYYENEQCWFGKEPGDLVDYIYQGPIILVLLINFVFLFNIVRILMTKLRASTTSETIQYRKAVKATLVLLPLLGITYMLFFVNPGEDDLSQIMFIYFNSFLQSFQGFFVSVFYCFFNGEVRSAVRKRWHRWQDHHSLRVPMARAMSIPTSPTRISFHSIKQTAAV
How it was run: (§1)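 Gs-coupled receptor activation was followed as intracellular cAMP in stably transfected HEK293 cells, 25,000 (CRHR1) or 5,000 (CRHR2) per well, with 0.25 mM IBMX present. Stimulation lasted 1 h at 37° C for CRHR1 and 30 min at room temperature for CRHR2.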

human CRHR1 = molecular target: T2, human CRHR1 (Homo sapiens, UniProt P34998); assay: Human CRHR1 cAMP assay (HTRF) in HEK293 cells stably expressing human CRHR1; assay type: cell-based; conditions: HEK293 cells overexpressing human CRHR1; relative EC50, maximum 66 nM human UCN1; mean ± SE; read-out: hCRHR1 cAMP EC50 (pM, ± SE)
T2 construct: expressed in transfected cells
T2 sequence (P34998 24-415): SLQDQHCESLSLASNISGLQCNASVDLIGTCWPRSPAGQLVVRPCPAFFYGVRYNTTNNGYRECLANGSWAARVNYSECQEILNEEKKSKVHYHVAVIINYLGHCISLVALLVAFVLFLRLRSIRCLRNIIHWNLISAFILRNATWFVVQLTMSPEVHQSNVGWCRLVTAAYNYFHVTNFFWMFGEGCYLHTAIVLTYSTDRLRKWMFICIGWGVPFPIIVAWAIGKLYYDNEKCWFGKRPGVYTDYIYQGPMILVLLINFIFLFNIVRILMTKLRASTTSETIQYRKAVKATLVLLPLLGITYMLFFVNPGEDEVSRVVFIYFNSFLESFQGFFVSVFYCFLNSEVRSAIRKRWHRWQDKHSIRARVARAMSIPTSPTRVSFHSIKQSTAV
How it was run: as §1

[1] = Pharmacokinetics in Sprague Dawley rats, single subcutaneous or intravenous dose (incl. 10, 30, 100 nmol/kg dose response); assay type: in vivo
[2] = male, Sprague Dawley, rat, plasma, iv, 196 nmol/kg, single intravenous dose 196 nmol/kg, individual animal
[3] = male, Sprague Dawley, rat, plasma, iv, 196 nmol/kg, single intravenous dose 196 nmol/kg, mean
[4] = single intravenous dose 196 nmol/kg, male Sprague Dawley rats, individual animal
[5] = single subcutaneous dose 196 nmol/kg, male Sprague Dawley rats, individual animal

Question: For CC[C@H](C)[C@H](NC(C)=O)C(=O)N[C@H](C(=O)N[C@H](C(=O)N[C@@H](CO)C(=O)N[C@@](C)(CC(C)C)C(=O)N[C@@H](CC(=O)O)C(=O)N[C@@H](C(=O)N1CCC[C@H]1C(=O)N[C@H](C(=O)NC(C)(C)C(=O)N[C@@](C)(CC(C)C)C(=O)N[C@@H](CC(C)C)C(=O)N[C@@H](CCC(N)=O)C(=O)N[C@H](C(=O)N[C@@H](CCCCN)C(=O)N[C@@H](CC(C)C)C(=O)N[C@@H](CCC(=O)O)C(=O)N[C@@H](CCC(N)=O)C(=O)N[C@@H](CCC(=O)O)C(=O)N[C@@H](CCCNC(=N)N)C(=O)N[C@@H](C)C(=O)N[C@@H](CCC(=O)O)C(=O)N[C@@H](CCCCN)C(=O)N[C@@H](C)C(=O)N[C@@H](CCCNC(=N)N)C(=O)N[C@@H](CCC(N)=O)C(=O)N[C@@H](CCC(N)=O)C(=O)N[C@@H](C)C(=O)N[C@@H](CCCCNC(=O)COCCOCCNC(=O)COCCOCCNC(=O)CC[C@H](NC(=O)CCCCCCCCCCCCCCCCCCC(=O)O)C(=O)O)C(=O)N[C@@H](CCC(=O)O)C(=O)N[C@@H](CC(N)=O)C(=O)N[C@H](C(=O)N[C@@H](CCC(=O)O)C(=O)N[C@H](C(=O)N[C@@H](CC(C)C)C(=O)N[C@@H](C)C(=O)N[C@@H](CCC(N)=O)C(=O)N[C@H](C(N)=O)C(C)C)[C@@H](C)CC)[C@@H](C)O)[C@@H](C)CC)[C@@H](C)CC)C(C)C)[C@@H](C)O)C(C)C [SEQ ID NO: 42, Ac-IVTS αMeL D (D-Val) PI Aib αMeL LQIKLEQERAEKARQQAK((2-[2-(2-Amino-ethoxy)-ethoxy]-acetyl)2-γE-CO-(CH2)18-CO2H)ENTEILAQV-NH2] (Ac-IVTS[αMeL]D[dV]PI[Aib][αMeL]LQIKLEQERAEKARQQAK([AEEA-AEEA-γGlu-C20 diacid])ENTEILAQV-NH2), which EC50 (human CRHR2) is on record?
Answer: The EC50 was 6.6 ± 0.8 pM.

Question: What about the EC50 (human CRHR1) of the same molecule?
Answer: Its EC50 is 2.3e+06 pM.

Question: What about the clearance [1, 2] of the same molecule?
Answer: Its clearance is 2.4 mL/h/kg.

Question: And the half-life [1, 2]?
Answer: The half-life was 36.1 h.

Question: And the clearance [1, 3]?
Answer: Its clearance is 2.43 mL/h/kg.

Question: What about the half-life [1, 3] of the same molecule?
Answer: Its half-life is 39.3 h.

Question: And the half-life ([1]; male, Sprague Dawley, rat, plasma, sc, 196 nmol/kg, single subcutaneous dose 196 nmol/kg, individual animal)?
Answer: Its half-life is 33.2 h.

Question: What about the CL/F ([1]; male, Sprague Dawley, rat, plasma, sc, 196 nmol/kg, single subcutaneous dose 196 nmol/kg, individual animal, read-out: CL/F (converted)) of the same molecule?
Answer: The CL/F was 5.41 mL/h/kg.

Question: What about the Tmax ([1]; male, Sprague Dawley, rat, plasma, sc, 196 nmol/kg, single subcutaneous dose 196 nmol/kg, individual animal, read-out: Tmax) of the same molecule?
Answer: The Tmax was 48 h.

Question: What about the half-life ([1]; male, Sprague Dawley, rat, plasma, sc, 196 nmol/kg, single subcutaneous dose 196 nmol/kg, mean) of the same molecule?
Answer: The half-life was 42.2 h.

Question: And the CL/F ([1]; male, Sprague Dawley, rat, plasma, sc, 196 nmol/kg, single subcutaneous dose 196 nmol/kg, mean, read-out: CL/F (converted))?
Answer: The CL/F was 4.85 mL/h/kg.

Question: What about the Tmax ([1]; male, Sprague Dawley, rat, plasma, sc, 196 nmol/kg, single subcutaneous dose 196 nmol/kg, mean, read-out: Tmax) of the same molecule?
Answer: The Tmax was 40 h.

Question: What about the AUC0-inf ([1]; rat, plasma, sc, single subcutaneous dose 196 nmol/kg, male Sprague Dawley rats, mean, read-out: AUC0-inf) of the same molecule?
Answer: The AUC0-inf was 44.3 µM·h.

Question: What about the Cmax ([1]; rat, plasma, sc, single subcutaneous dose 196 nmol/kg, male Sprague Dawley rats, mean, read-out: Cmax) of the same molecule?
Answer: The Cmax was 473 nM.

Question: What about the AUC0-inf ([1]; rat, plasma, single intravenous dose 196 nmol/kg, male Sprague Dawley rats, mean, read-out: AUC0-inf) of the same molecule?
Answer: The AUC0-inf was 80.6 µM·h.

Question: What about the C0 ([1]; rat, plasma, single intravenous dose 196 nmol/kg, male Sprague Dawley rats, mean, read-out: C0) of the same molecule?
Answer: Its C0 is 2420 nM.

Question: What about the AUC0-inf [1, 4] of the same molecule?
Answer: Its AUC0-inf is 81.5 µM·h and 77.9 µM·h and 82.5 µM·h.

Question: What about the C0 [1, 4] of the same molecule?
Answer: The C0 was 2760 nM and 2250 nM and 2260 nM.

Question: And the CL [1, 4]?
Answer: Its CL is 2.51 mL/h/kg and 2.37 mL/h/kg.

Question: And the T1/2 [1, 4]?
Answer: The T1/2 was 35.8 h and 46.0 h.

Question: What about the AUC0-inf [1, 5] of the same molecule?
Answer: Its AUC0-inf is 38.1 µM·h and 43.2 µM·h and 51.5 µM·h.

Question: And the CL/F [1, 5]?
Answer: The CL/F was 4.80 mL/h/kg and 4.35 mL/h/kg.

Question: What about the Cmax [1, 5] of the same molecule?
Answer: Its Cmax is 399 nM and 559 nM and 460 nM.

Question: What about the T1/2 [1, 5] of the same molecule?
Answer: Its T1/2 is 39.1 h and 54.2 h.

Question: And the Tmax [1, 5]?
Answer: The Tmax was 24 h.

Question: With “Ac-PPPIVTS[αMeL]D[dV]PT[Aib][αMeL]LQK[Aib]LEQERAEKARQQAK([γGlu-AEEA-εLys-C20 diacid])ENTEILAQV-NH2 [SEQ ID NO: 46, Ac-PPPIVTS αMeL D (D-Val) PT Aib αMeL LQK Aib LEQERAEKARQQAK(γE-(2-[2-(2-Amino-ethoxy)-ethoxy]-acetyl)-ϵK-CO-(CH2)18-CO2H)ENTEILAQV-NH2]” as the molecule, how does the EC50 (human CRHR2) read?
Answer: The EC50 was 13 ± 1.1 pM.

Question: And the EC50 (human CRHR1)?
Answer: Its EC50 is greater than 1e+07 pM.

Question: With “H-GSPSIVTS[αMeL]DVPT[Aib][αMeL]LQKILEQERAEKARQQATEAAEILAQV-NH2 [SEQ ID NO: 27]” as the molecule, how does the EC50 (human CRHR2) read?
Answer: The EC50 was 23.6 ± 2.9 pM.

Question: What about the EC50 (human CRHR1) of the same molecule?
Answer: Its EC50 is greater than 1e+07 pM.

Question: What does the source list for “I: Ac-GSPSIVTS[αMeL]DVPT[Aib][αMeL]LQKILEQERAEKARQQAKEAAEILAQV-NH2 / II: {C20 diacid-γGlu}-EKEKEK[AEEA] (amide I:33-II:C) [SEQ ID NO: 9, Ac-GSPSIVTS αMeL DVPT Aib αMeL LQKILEQERAEKARQQAK((2-[2-(2-Amino-ethoxy)-ethoxy]-acetyl)-KEKEKE-γE-CO-(CH2)18-CO2H)EAAEILAQV-NH2]”?
Answer: EC50 (human CRHR2): 15.5 ± 3.3 pM; EC50 (human CRHR1): > 1e+07 pM

Question: With “I: Ac-GSPSIVTS[αMeL]DVPT[Aib][αMeL]LQKILEQERAEKARQQAKEAAEILAQV-NH2 / II: {C20 diacid}-EPEPEP[γGlu] (amide I:33-II:C) [SEQ ID NO: 16, Ac-GSPSIVTS αMeL DVPT Aib αMeL LQKILEQERAEKARQQAK(γE-PEPEPE-CO-(CH2)18-CO2H)EAAEILAQV-NH2]” as the molecule, how does the EC50 (human CRHR2) read?
Answer: The EC50 was 12.5 ± 1.1 pM.

Question: What about the EC50 (human CRHR1) of the same molecule?
Answer: The EC50 was greater than 1e+07 pM.
